The nature of assay [1]: Luminescence Cell-Based Dose Confirmation HTS to Identify Activators of 5'UTR Stem-Loop Driven Alpha-Synuclein mRNA Translation in H4 Neuroglioblastoma Cells. [Related pubchem assays: 1829 (Project Summary), 1814 (Primary HTS)]. It is filed as functional.
Assay [2] is described as follows: Luminescence Cell-Based Dose Response HTS to Identify Activators of Luciferase Translation or Activity in H4 […] Cells. [Related pubchem assays: 1829 (Project Summary), 1814 (Primary HTS)]. The format is functional.
For assay [3], the system named is H4. The assay is described as follows: Luminescence Cell-Based Dose Response HTS to Identify Activators of 5'UTR Stem-Loop Driven Prion Protein mRNA Translation in H4 Neuroglioblastoma Cells. [Related pubchem assays: 1829 (Project Summary), 1814 (Primary HTS)]. The format is functional. To be noted: Homo sapiens.
The target of assay [4] is T1, Heat shock factor protein 1 (Mus musculus, UniProt P38532).
T1 sequence (P38532 whole entry): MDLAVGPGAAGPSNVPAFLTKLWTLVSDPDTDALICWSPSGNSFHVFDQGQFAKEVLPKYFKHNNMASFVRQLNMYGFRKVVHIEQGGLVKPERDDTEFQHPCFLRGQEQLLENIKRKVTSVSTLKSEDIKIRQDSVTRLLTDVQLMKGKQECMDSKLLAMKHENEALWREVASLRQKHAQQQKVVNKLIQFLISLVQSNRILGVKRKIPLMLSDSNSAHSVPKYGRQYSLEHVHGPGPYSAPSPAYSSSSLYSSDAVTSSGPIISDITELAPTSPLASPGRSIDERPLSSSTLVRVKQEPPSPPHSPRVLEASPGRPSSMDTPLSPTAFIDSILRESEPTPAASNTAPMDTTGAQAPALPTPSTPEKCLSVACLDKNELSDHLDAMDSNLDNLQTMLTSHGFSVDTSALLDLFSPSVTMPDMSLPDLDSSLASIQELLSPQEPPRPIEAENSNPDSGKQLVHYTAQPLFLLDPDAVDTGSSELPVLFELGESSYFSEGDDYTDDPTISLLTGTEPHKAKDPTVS
In words: inhibition of MG132-induced HSE-luciferase signal, confirmation, cell-based, NIH3T3, luminescence, dose retest (AID 2382).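 Note: NIH3T3 fibroblasts with HSF1-driven luciferase reporter stressed by proteasome inhibitor MG132; luminescence from HSF1-driven luciferase expression after 8 hours of MG132 stress.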 It is filed as functional.

The nature of assay [5]: A549 cell cytotoxicity, dose response, cytotoxicity control, plate reader, cherry-pick, antagonist series (AID 743412). It is filed as functional, cell-based.
Assay [6] in a line: LGR2 antagonists, dose response, cell-based, HEK293, CRE-luciferase reporter, cherry pick, set 2 (AID 743343).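 Note: transfected cells were stimulated with diluted bursicon conditioned medium after compound addition.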 The format is functional. In general terms: A reporter such as luciferase makes a cellular process visible.
Assay [7] is described as follows: MC4R antagonists, dose response, counter-screen for LGR2 antagonist project, cell-based, plate reader, cherry pick (AID 743444).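 Note: transfected HEK 293 cells stimulated with alpha-MSH peptide; potency of inhibitors of the alpha-MSH evoked signal.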 It is filed as functional. A general note: The purpose of a counterscreen is to sort out artefacts and off-target activity.
Assay [8] can be described thus: HEK293 cell cytotoxicity, dose response, cytotoxicity control, plate reader, cherry-picked samples (AID 743446). The format is functional, cell-based.
The target in assay [9] is T2, Heat shock protein HSP 90-alpha (Homo sapiens, UniProt P07900). In words: Luminescence-based dose response biochemical high throughput screening assay for inhibitors of the Heat Shock Protein 90 (HSP90). [Related pubchem assays: 1831 (Summary AID.), 1846 (Confirmation screen.), 1789 (Primary screen.)].
The target in assay [10] is T3, Bcl-2-related protein A1 (Mus musculus, UniProt Q07440).
T3 sequence (Q07440 whole entry): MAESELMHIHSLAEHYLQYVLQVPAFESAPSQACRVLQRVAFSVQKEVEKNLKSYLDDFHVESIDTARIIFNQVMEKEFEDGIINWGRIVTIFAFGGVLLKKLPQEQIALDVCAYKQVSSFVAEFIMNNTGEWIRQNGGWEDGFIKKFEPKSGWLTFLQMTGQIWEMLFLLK
The assay is described as follows: Bfl-1 inhibitors, primary screen, biochemical, fluorescence polarization, FITC-Bid, mouse (AID 432). Background: In fluorescence polarisation assays a small probe gives low polarisation when free and higher when bound to something large.

Assay [11] concerns the target T4, Dual specificity protein phosphatase 6 (Rattus norvegicus, UniProt Q64346).
T4 sequence (Q64346 whole entry): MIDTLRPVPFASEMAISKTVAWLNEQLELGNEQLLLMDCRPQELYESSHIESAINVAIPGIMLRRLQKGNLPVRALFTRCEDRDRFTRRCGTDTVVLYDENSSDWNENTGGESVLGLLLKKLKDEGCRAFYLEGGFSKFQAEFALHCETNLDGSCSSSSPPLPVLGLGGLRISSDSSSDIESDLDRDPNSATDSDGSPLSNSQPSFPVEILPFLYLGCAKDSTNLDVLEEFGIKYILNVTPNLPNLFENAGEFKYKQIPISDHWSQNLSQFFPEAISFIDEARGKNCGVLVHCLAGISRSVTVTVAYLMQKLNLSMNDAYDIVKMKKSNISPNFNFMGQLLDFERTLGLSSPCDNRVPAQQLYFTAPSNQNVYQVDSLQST
In words: MKP-3 phosphatase inhibitors, primary screen, biochemical, rat enzyme, in vitro (AID 425).

In assay [12] the target is T5, Small ubiquitin-related modifier 1 (Homo sapiens, UniProt P63165). In words: inhibitors of SUMO1 peptide binding, dose response, biochemical, fluorescence polarization, uHTS hits (AID 624382). It is filed as functional. To be noted: read-out: IC50_Mean.
Assay [13] concerns the target T5, Small ubiquitin-related modifier 1. In words: inhibitors of SUMO1 partner interactions, dose response, biochemical, FRET (AID 624383). It is filed as functional. The settings on record: read-out: IC50_Mean.
Assay [14] has as its target T2, Heat shock protein HSP 90-alpha. The format is functional, organism-based.
For assay [15], the target named is Protein Tat (Human immunodeficiency virus type 1 group M subtype B (isolate HXB2)(HIV-1), UniProt P04608). The format is functional.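 Note: tat binding to TAR RNA read out by fluorescence polarization.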
Assay [16] in a line: THP-1 cell cytotoxicity, dose response, cytotoxicity control for Vif-APOBEC3G degradation inhibitor project, THP-1 cells (AID 1117359). It is filed as functional. The settings on record: Human immunodeficiency virus 1, THP-1.
A short description of assay [17]: Luminescent dose response cell-based high throughput screening assay for inhibitors of the Janus kinase 2 mutant JAK2V617F. [Related pubchem assays: 1446 (Primary screen.), 1521 (Confirmation assay.), 1486 (Counter screen.)]. The format is functional.
Assay [18] can be described thus: inhibitors of intracellular T. cruzi replication, confirmation, NIH3T3 host cells, beta-gal luminescence (AID 2044).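 Note: intracellular parasites grown in NIH/3T3 mouse fibroblasts as host cells; luminescent beta-galactosidase reporter signal from transgenic T. cruzi replicating inside host cells; inhibitors lower the luminescence signal.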 The format is functional, cell-based.
Assay [19] is described as follows: cytotoxicity toward NIH3T3 fibroblasts, dose response, counter-screen, cell-based, ATP luminescence, mouse fibroblasts (AID 2010).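 Note: cells exposed to compound for about 90 hours before reading.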 It is filed as functional.
The nature of assay [20]: cells.
The target of assay [21] is Large T antigen (Simian virus 40, UniProt P03070). It is filed as functional, Betapolyomavirus macacae.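 Note: Confirmatory-stage PubChem screen for compounds that inhibit SV40 T antigen.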

Activity calls are given as the source filed them. Bounds are passed on as bounds.

T5 sequence (P63165 whole entry): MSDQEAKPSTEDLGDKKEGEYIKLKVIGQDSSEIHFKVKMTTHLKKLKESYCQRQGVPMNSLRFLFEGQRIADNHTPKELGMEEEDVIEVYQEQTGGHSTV
Protein Tat, sequence (P04608 whole entry): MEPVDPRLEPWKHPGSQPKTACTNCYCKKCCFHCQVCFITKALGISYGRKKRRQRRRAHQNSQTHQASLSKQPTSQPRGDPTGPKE
Large T antigen, sequence (P03070 whole entry): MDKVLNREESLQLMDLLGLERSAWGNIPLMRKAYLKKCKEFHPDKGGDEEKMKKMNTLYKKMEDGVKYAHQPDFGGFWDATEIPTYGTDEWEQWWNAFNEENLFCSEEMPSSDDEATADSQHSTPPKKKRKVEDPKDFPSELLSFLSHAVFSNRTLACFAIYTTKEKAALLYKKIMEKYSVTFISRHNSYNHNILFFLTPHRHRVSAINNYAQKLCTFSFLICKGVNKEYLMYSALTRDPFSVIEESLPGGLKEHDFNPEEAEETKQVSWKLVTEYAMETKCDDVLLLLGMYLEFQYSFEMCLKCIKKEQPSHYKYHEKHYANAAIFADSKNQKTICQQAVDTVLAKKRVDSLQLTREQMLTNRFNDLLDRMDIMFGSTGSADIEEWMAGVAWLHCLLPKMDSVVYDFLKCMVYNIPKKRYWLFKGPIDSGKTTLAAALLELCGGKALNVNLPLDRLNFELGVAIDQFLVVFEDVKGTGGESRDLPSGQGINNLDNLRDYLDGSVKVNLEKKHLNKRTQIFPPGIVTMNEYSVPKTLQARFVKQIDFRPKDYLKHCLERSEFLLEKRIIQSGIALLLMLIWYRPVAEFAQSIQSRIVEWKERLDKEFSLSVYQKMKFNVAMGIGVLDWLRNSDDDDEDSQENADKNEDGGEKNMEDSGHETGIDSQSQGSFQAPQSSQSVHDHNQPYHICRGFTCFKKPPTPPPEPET

For the compound `CN(C(=O)COC(=O)c1nc(Cl)c(Cl)c(Cl)c1Cl)C1CCS(=O)(=O)C1` (centres undefined), the EC50 in [1] was > 120 µM (not active); in [2], > 120 µM (not active); in assay [3], > 120 µM (not active); in [4], 13.1 µM (active). For the same compound, the AC50 in assay [5] was 7.97 µM (active); in assay [6], 15.8 µM (active); in [7], 22.7 µM (active); in assay [8], 6.09 µM (active).
In the case of `COC(=O)c1ccc(COc2ccc3c(C)c(C)c(=O)oc3c2)o1`, in [9], the IC50 was 1.07 µM (active).
Regarding `Nc1ccc2ncccc2c1N`, the IC50 was 3.49 µM (active) in assay [10], > 10 µM (not active) in assay [11], > 66.6 µM (inactive) in assay [12] and 3.21 µM (active) in [13].
Regarding `O=C(Nc1nc(-c2ccco2)c(-c2ccco2)s1)c1ccco1`, the AC50 in assay [14] was 5.17 µM (active). Further, in assay [15], the IC50 was > 100 µM (active). Besides, in assay [16], the CC50 was > 40 µM (active).
On to `CCCn1c(CN(C)Cc2ccccc2)nc2c1c(=O)n(C)c(=O)n2C`, for which the IC50 in [17] is 4.92 µM (active).
`COc1ccc(CCN2C(=O)CC(Nc3ccc(N4CCOCC4)cc3)C2=O)cc1OC` (centres undefined): the IC50 in assay [15] is 18.8 µM (inconclusive).
Take `COC(=O)C1CCN(C(=O)c2ccc3nc(-c4cccc(OC)c4)oc3c2)CC1`: the IC50 in assay [9] was 1.05 µM (active).
For the compound `Cc1ncc(CN2CCCC(CCC(=O)NCc3ccccc3F)C2)s1` (centres undefined), the EC50 in assay [18] is < 100 nM (active); in assay [19], > 60 µM (not active); in assay [20] it was 99 nM (active).
Consider `Cc1oc2c(O)c(O)ccc2c(=O)c1-c1cnn(-c2ccccc2)c1`, for which the figures for the IC50 in assay [17] and in [21] were 2.04 µM (active) and 10.2 µM (active), respectively.

By EC50 is commonly meant the concentration that produces a half-maximal response. The AC50 is the concentration giving half of the maximal activity seen. Usually CC50 stands for the concentration giving 50% cytotoxicity.
